These results are taken from ChEMBL document CHEMBL5385890, “A JAK tyrosine kinase and pseudokinase Co-inhibition strategy combines enhanced potency and on-demand activation” (Eur J Med Chem, 2023).

A short description of series [1]: Stability of compound in PBS measured after 24 hrs. The class given is physicochemical. The note with it: buffer, 24 h.
Series [2] is described as follows: Stability of compound in mouse plasma measured after 24 hrs. The class given is ADME, cell-free. Particulars: 24 h.
A short description of series [3]: Stability of compound in human plasma measured after 24 hrs. The class given is ADME, cell-free. The note with it: 24 h.
A short description of series [4]: Cytotoxicity against HUVEC cells assessed as inhibition of cell growth. The class given is toxicity, cell-based. Particulars: human.
A short description of series [5]: Prodrug release in PBS buffer in presence of NADH and nitroreductase assessed as N-tert-butyl-3-[[5-methyl-2-(4-piperazin-1-ylanilino)pyrimidin-4-yl]amino]benzenesulfonamide formation at 10 uM and measured after 120 mins under hypoxic condition by LC-MS/MS analysis. The note with it: 2 h. The class given is ADME.
Series [6] is described as follows: Prodrug release in PBS buffer in presence of NADH and nitroreductase assessed as 3-cyclopropyl-1-(3-{5-[(morpholin-4-yl)methyl]-1H-1,3-benzodiazol-2-yl}-1H-pyrazol-4-yl)urea formation at 10 uM measured after 120 mins under hypoxic condition by LC-MS/MS analysis. The class given is ADME. The note with it: 2 h.
Series [7] is described as follows: Prodrug release in HEL cells assessed as N-tert-butyl-3-[[5-methyl-2-(4-piperazin-1-ylanilino)pyrimidin-4-yl]amino]benzenesulfonamide formation at 1 uM incubated for 24 hrs under hypoxic condition by LC-MS/MS analysis. The class given is ADME, cell-based. Particulars: human.
A short description of series [8]: Prodrug release in HEL cells assessed as 3-cyclopropyl-1-(3-{5-[(morpholin-4-yl)methyl]-1H-1,3-benzodiazol-2-yl}-1H-pyrazol-4-yl)urea formation at 1 uM incubated for 24 hrs under hypoxic condition by LC-MS/MS analysis. The class given is ADME, cell-based. Particulars: human.
In series [9] the test system is HEL. Kind of series: Cytotoxicity against HEL cells assessed as inhibition of cell growth incubated under hypoxic condition. The class given is functional, cell-based. Particulars: Homo sapiens.
Series [10] deals with HEL. Kind of series: Cytotoxicity against HEL cells assessed as inhibition of cell growth incubated under normoxic condition. The class given is functional, cell-based. Particulars: Homo sapiens.
For series [11], the system named is HEL. Kind of series: Inhibition of JAK/STAT phosphorylation in HEL cells assessed as reduction in STAT3 phosphorylation at 3 uM incubated under hypoxic condition by Western blot analysis. Particulars: Homo sapiens. The class given is cell-based.
In series [12] the test system is HEL. Kind of series: Inhibition of JAK/STAT phosphorylation in HEL cells assessed as reduction in STAT5 phosphorylation at 3 uM incubated under hypoxic condition by Western blot analysis. The class given is cell-based. Particulars: Homo sapiens. On the technique in general: A western blot detects proteins with antibodies after separation by electrophoresis.
The test system of series [13] is HEL. Kind of series: Inhibition of JAK/STAT phosphorylation in HEL cells assessed as reduction in STAT3 phosphorylation at 3 uM incubated under normoxic condition by Western blot analysis. The class given is cell-based. Particulars: Homo sapiens.
The test system of series [14] is HEL. Kind of series: Inhibition of JAK/STAT phosphorylation in HEL cells assessed as reduction in STAT5 phosphorylation at 3 uM incubated under normoxic condition by Western blot analysis. The class given is cell-based. Particulars: Homo sapiens.
For series [15], the system named is HEL. Kind of series: Antitumor activity against HEL cells xenografted in Balb/c nude mouse assessed as tumor growth inhibition at 40 mg/kg, ip administered once daily for 14 consecutive days relative to control. The class given is functional, Homo sapiens. Particulars: 336 h, time 14 day, read-out: TGI.
Series [16] concerns HEL. Kind of series: Antitumor activity against HEL cells xenografted in Balb/c nude mouse assessed as tumor growth inhibition at 80 mg/kg, ip administered once daily for 14 consecutive days relative to control. The class given is functional, Homo sapiens. Particulars: 336 h, time 14 day, read-out: TGI.
Series [17] deals with HEL. Kind of series: Antitumor activity against HEL cells xenografted in Balb/c nude mouse assessed as induction of apoptosis in tumor at 40 to 80 mg/kg, ip administered once daily for 14 consecutive days by TUNEL assay relative to control. The class given is functional, organism-based. The note with it: Homo sapiens, dose 40-80 mg/kg, time 14.0 day.
The nature of series [18]: Toxicity in Balb/c nude mouse xenografted with HEL cells assessed as reduction in body weight at 40 to 80 mg/kg, ip administered for 14 consecutive days. The class given is organism-based. The note with it: in vivo, 336 h, dose 40-80 mg/kg, time 14 day.
The subject of series [19] is Mus musculus. Kind of series: In vivo inhibition of JAK/STAT signalling in Balb/c nude mouse xenografted with HEL cells assessed as reduction in STAT3 phosphorylation in heart at 40 to 80 mg/kg, ip administered for 14 consecutive days by Western blot analysis. The class given is functional, organism-based. Particulars: dose 40-80 mg/kg, time 14.0 day.
In series [20] the test system is Mus musculus. Kind of series: In vivo inhibition of JAK/STAT signalling in Balb/c nude mouse xenografted with HEL cells assessed as reduction in STAT5 phosphorylation in heart at 40 to 80 mg/kg, ip administered for 14 consecutive days by Western blot analysis. The class given is functional, organism-based. The note with it: dose 40-80 mg/kg, time 14.0 day.
The subject of series [21] is Mus musculus. Kind of series: In vivo inhibition of JAK/STAT signalling in Balb/c nude mouse xenografted with HEL cells assessed as reduction in STAT3 phosphorylation in liver at 40 to 80 mg/kg, ip administered for 14 consecutive days by Western blot analysis. The class given is functional, organism-based. The note with it: dose 40-80 mg/kg, time 14.0 day.
Series [22] has as its system Mus musculus. Kind of series: In vivo inhibition of JAK/STAT signalling in Balb/c nude mouse xenografted with HEL cells assessed as reduction in STAT5 phosphorylation in liver at 40 to 80 mg/kg, ip administered for 14 consecutive days by Western blot analysis. The class given is functional, organism-based. Particulars: dose 40-80 mg/kg, time 14.0 day.
Series [23] deals with Mus musculus. Kind of series: In vivo inhibition of JAK/STAT signalling in Balb/c nude mouse xenografted with HEL cells assessed as reduction in STAT3 phosphorylation in spleen at 40 to 80 mg/kg, ip administered for 14 consecutive days by Western blot analysis. The class given is functional, organism-based. The note with it: dose 40-80 mg/kg, time 14.0 day.
Series [24] deals with Mus musculus. Kind of series: In vivo inhibition of JAK/STAT signalling in Balb/c nude mouse xenografted with HEL cells assessed as reduction in STAT5 phosphorylation in spleen at 40 to 80 mg/kg, ip administered for 14 consecutive days by Western blot analysis. The class given is functional, organism-based. Particulars: dose 40-80 mg/kg, time 14.0 day.
In series [25] the test system is Mus musculus. Kind of series: In vivo inhibition of JAK/STAT signalling in Balb/c nude mouse xenografted with HEL cells assessed as reduction in STAT3 phosphorylation in lung at 40 to 80 mg/kg, ip administered for 14 consecutive days by Western blot analysis. The class given is functional, organism-based. Particulars: dose 40-80 mg/kg, time 14.0 day.
The subject of series [26] is Mus musculus. Kind of series: In vivo inhibition of JAK/STAT signalling in Balb/c nude mouse xenografted with HEL cells assessed as reduction in STAT5 phosphorylation in lung at 40 to 80 mg/kg, ip administered for 14 consecutive days by Western blot analysis. The class given is functional, organism-based. Particulars: dose 40-80 mg/kg, time 14.0 day.
In series [27] the test system is Mus musculus. Kind of series: In vivo inhibition of JAK/STAT signalling in Balb/c nude mouse xenografted with HEL cells assessed as reduction in STAT3 phosphorylation in kidney at 40 to 80 mg/kg, ip administered for 14 consecutive days by Western blot analysis. The note with it: dose 40-80 mg/kg, time 14.0 day. The class given is functional, organism-based.
Series [28] deals with Mus musculus. Kind of series: In vivo inhibition of JAK/STAT signalling in Balb/c nude mouse xenografted with HEL cells assessed as reduction in STAT5 phosphorylation in kidney at 40 to 80 mg/kg, ip administered for 14 consecutive days by Western blot analysis. Particulars: dose 40-80 mg/kg, time 14.0 day. The class given is functional, organism-based.
Series [29] is described as follows: Cytotoxicity against HUVEC cells assessed as inhibition of cell growth incubated in presence of N-tert-butyl-3-[[5-methyl-2-(4-piperazin-1-ylanilino)pyrimidin-4-yl]amino]benzenesulfonamide. Particulars: human.
In series [30] the test system is BaF3. Kind of series: Cytotoxicity against mouse BaF3 cells harboring EPOR JAK2 V617F mutant measured after 24 hrs by XTT assay. The class given is functional, cell-based. Particulars: BaF3, 24 h. On the technique in general: Tetrazolium dyes change colour on reduction, which living cells bring about.
Series [31] deals with HEL. Kind of series: Cytotoxicity against HEL cells assessed as inhibition of cell growth irradiated with 450 nm light and incubated in presence of N-tert-butyl-3-[[5-methyl-2-(4-piperazin-1-ylanilino)pyrimidin-4-yl]amino]benzenesulfonamide. The class given is functional, cell-based. The note with it: Homo sapiens, light or radiation study.
In series [32] the test system is HEL. Kind of series: Cytotoxicity against HEL cells assessed as inhibition of cell growth incubated under dark condition in presence of N-tert-butyl-3-[[5-methyl-2-(4-piperazin-1-ylanilino)pyrimidin-4-yl]amino]benzenesulfonamide. The class given is functional, cell-based. The note with it: Homo sapiens.
The test system of series [33] is HEL. Kind of series: Cytotoxicity against HEL cells assessed as inhibition of cell growth incubated under hypoxic condition in presence of N-tert-butyl-3-[[5-methyl-2-(4-piperazin-1-ylanilino)pyrimidin-4-yl]amino]benzenesulfonamide. The class given is functional, cell-based. The note with it: Homo sapiens.
The subject of series [34] is HEL. Kind of series: Cytotoxicity against HEL cells assessed as inhibition of cell growth incubated under normoxic condition in presence of N-tert-butyl-3-[[5-methyl-2-(4-piperazin-1-ylanilino)pyrimidin-4-yl]amino]benzenesulfonamide. The class given is functional, cell-based. The note with it: Homo sapiens.
Series [35] has as its system HEL. Kind of series: Cytotoxicity against HEL cells assessed as inhibition of cell growth incubated under normoxic condition in presence of 3-cyclopropyl-1-(3-{5-[(morpholin-4-yl)methyl]-1H-1,3-benzodiazol-2-yl}-1H-pyrazol-4-yl)urea. The note with it: Homo sapiens. The class given is functional, cell-based.
The subject of series [36] is HEL. Kind of series: Antitumor activity against HEL cells xenografted in Balb/c nude mouse assessed as tumor growth inhibition at 25 mg/kg, ip administered once daily for 14 consecutive days relative to control. The class given is functional, Homo sapiens. The note with it: 336 h, time 14 day, read-out: TGI.
Series [37] deals with HEL. Kind of series: Antitumor activity against HEL cells xenografted in Balb/c nude mouse assessed as tumor growth inhibition at 25 mg/kg, ip administered once daily for 14 consecutive days in presence of N-tert-butyl-3-[[5-methyl-2-(4-piperazin-1-ylanilino)pyrimidin-4-yl]amino]benzenesulfonamide relative to control. The class given is functional, Homo sapiens. The note with it: 336 h, time 14 day, read-out: TGI.

For series [38], the system named is HEL. Kind of series: Antitumor activity against HEL cells xenografted in Balb/c nude mouse assessed as induction of apoptosis in tumor at 25 mg/kg, ip administered once daily for 14 consecutive days in presence of N-tert-butyl-3-[[5-methyl-2-(4-piperazin-1-ylanilino)pyrimidin-4-yl]amino]benzenesulfonamide by TUNEL assay relative to control. The note with it: Homo sapiens, time 14.0 day. The class given is functional, organism-based.

In series [39] the test system is HEL. Kind of series: Cytotoxicity against HEL cells assessed as inhibition of cell growth. The class given is functional, cell-based. The note with it: Homo sapiens.

Active and inactive are the calls of the source. No cut-off for these calls is given here.

As to `Cc1cc(COC(=O)N2CCN(c3ccc(Nc4ncc(C)c(Nc5cccc(S(=O)(=O)NC(C)(C)C)c5)n4)cc3)CC2)c(OCc2cnc([N+](=O)[O-])n2C)c(COC(=O)n2cc(NC(=O)NC3CC3)c(-c3nc4cc(CN5CCOCC5)ccc4[nH]3)n2)c1`, the Stability result in series [1], in series [2] and in [3] was “Stable” throughout. Moreover, the IC50 (commonly the concentration needed to halve the response being measured) was 84.4 µM in series [4], 3.1 µM in series [9] and above 200 µM in series [10]. Moreover, the Drug metabolism was 6.57 µM in series [5], 6.49 µM in series [6], “Metabolite_Detected” in series [7] and “Metabolite_Detected” in [8]. In addition, the inhibition entry in [11] and in series [12] was “Active” in each case. The inhibition result in series [13], in [14], in series [19], in series [20], in series [21] and in series [22] was “inactive” throughout. Moreover, the inhibition result in series [23], in series [24], in [25], in [26], in [27] and in series [28] was “inactive” in each case. Also, the inhibition in vivo at 40 mg/kg in series [15] amounted to 59.8%. Further, the inhibition in vivo at 80 mg/kg in series [16] was 88.9%. For the same molecule, the result in [17] was Active. Further, the Activity result in series [18] is listed as “Non-Toxic”.
Regarding `O=C(Nc1c[nH]nc1-c1nc2cc(CN3CCOCC3)ccc2[nH]1)NC1CC1` [AT-9283], the figures for the IC50 in series [4] and in series [29] were 1.77 µM and 1760 nM, respectively.
With `Cc1cnc(Nc2ccc(N3CCN(C)CC3)cc2)nc1Nc1cccc(S(=O)(=O)NC(C)(C)C)c1`, in series [30], half-maximal inhibition (IC50) required 170 nM.
For `O=C(Nc1c[nH]nc1-c1nc2ccc(CN3CCOCC3)cc2[nH]1)NC1CC1` [AT-9283], the IC50 worked out at 2180 nM in [31]; 1410 nM in [32]; 1340 nM in series [33]; 650 nM in series [34]; 650 nM in [35]; 1040 nM in [39]. For the same molecule, the inhibition in vivo at 25 mg/kg came to 85.9% in series [36] and 91.2% in series [37]. The outcome in [38] was Active.
